Measured values taken from ChEMBL document CHEMBL1126534, “Role of sulfonamide moiety in non-prostanoid txa2 receptor antagonist kt2-962 : modifications of this moiety and the resulting activities” (Bioorg Med Chem Lett, 1993).

Key:
Thromboxane A2 receptor [1] = biological target: T1, Thromboxane A2 receptor (Rattus norvegicus, UniProt P34978); assay: Tested for antagonistic activity on isolated rat thoracic aorta (thromboxane A2 receptor) precontracted by U-46619 (3 x 10 e-8 M); type: functional, tissue-based
T1 sequence (P34978 whole entry): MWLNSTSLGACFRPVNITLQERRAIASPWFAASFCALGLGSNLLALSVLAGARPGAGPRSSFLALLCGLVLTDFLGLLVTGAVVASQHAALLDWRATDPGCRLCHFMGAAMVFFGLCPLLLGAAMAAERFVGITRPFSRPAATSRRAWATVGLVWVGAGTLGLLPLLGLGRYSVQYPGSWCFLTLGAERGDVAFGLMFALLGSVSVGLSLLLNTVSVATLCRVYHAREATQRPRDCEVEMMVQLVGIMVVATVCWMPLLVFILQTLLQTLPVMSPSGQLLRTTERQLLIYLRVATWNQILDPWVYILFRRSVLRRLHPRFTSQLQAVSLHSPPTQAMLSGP

Oryctolagus cuniculus = species on record: Oryctolagus cuniculus; assay: Tested for 50% maximal aggregation of rabbit platelet-rich plasma induced by 4 x 10 e-6 M U-46619; type: functional
Thromboxane A2 receptor [2] = biological target: T1, Thromboxane A2 receptor; assay: Tested for antagonistic activity on isolated rat thoracic aorta (TXA2 receptor) precontracted by U-46619 (3 x 10 e-8 M); type: functional, tissue-based

Q: Which IC50 (Thromboxane A2 receptor [1]) does the source give for `CC(C)c1ccc2c(CCCCNS(=O)(=O)c3ccc(Cl)cc3)cc(S(=O)(=O)O)c-2cc1` here?
A: 0.0009 µM

Q: `CC(C)c1ccc2c(CCC/C=N/N=C(\S)Nc3ccc(Cl)cc3)cc(C(=O)O)c-2cc1` was tested. Which IC50 (Thromboxane A2 receptor [1]) did it give?
A: > 100 µM

Q: With `CC(C)c1ccc2c(CCC/C=N/NC(=O)Nc3ccc(Cl)cc3)cc(C(=O)O)c-2cc1` as the compound, how does the IC50 (Thromboxane A2 receptor [1]) read?
A: > 100 µM

Q: For `CC(C)c1ccc2c(CCCCCS(=O)(=O)Nc3ccccc3)cc(C(=O)O)c-2cc1`, which IC50 (Thromboxane A2 receptor [1]) is on record?
A: 1.5 µM

Q: `CC(C)c1ccc2c(CCC/C=N\NC(=O)Nc3ccccc3)cc(C(=O)O)c-2cc1` was tested. Which IC50 (Thromboxane A2 receptor [1]) did it give?
A: > 100 µM

Q: What about the IC50 (Oryctolagus cuniculus) of the same compound?
A: > 1000 µM

Q: With `CC(C)c1ccc2c(CNC(=O)CNC(=O)c3ccccc3)cc(C(=O)O)c-2cc1` as the compound, how does the IC50 (Oryctolagus cuniculus) read?
A: > 1000 µM

Q: What about the IC50 (Thromboxane A2 receptor [2]) of the same compound?
A: > 100 µM

Q: How did the IC50 (Thromboxane A2 receptor [1]) turn out when `CC(C)c1ccc2c(CCCCS(=O)(=O)Nc3ccc(Cl)cc3)cc(C(=O)O)c-2cc1` was run?
A: 2.6 µM

Q: What about the IC50 (Oryctolagus cuniculus) of the same compound?
A: > 1000 µM

Q: `CC(C)c1ccc2c(CCCC(=O)NS(=O)(=O)c3ccc(Cl)cc3)cc(S(=O)(=O)O)c-2cc1` was tested. Which IC50 (Thromboxane A2 receptor [1]) did it give?
A: 54 µM

Q: What about the IC50 (Oryctolagus cuniculus) of the same compound?
A: 56 µM

Q: Which results are given for `CC(C)c1ccc2c(CCCCS(=O)(=O)Nc3ccc(Cl)cc3)cc(S(=O)(=O)O)c-2cc1`?
A: IC50 (Thromboxane A2 receptor [1]): 0.22 µM; IC50 (Oryctolagus cuniculus): > 1000 µM

Q: For `CC(C)c1ccc2c(CCCC(=O)NS(=O)(=O)c3ccccc3)cc(C(=O)O)c-2cc1`, which IC50 (Thromboxane A2 receptor [1]) is on record?
A: > 100 µM

Q: With `CC(C)c1ccc2c(CCCS(=O)(=O)Nc3ccc(Cl)cc3)cc(S(=O)(=O)O)c-2cc1` as the compound, how does the IC50 (Thromboxane A2 receptor [1]) read?
A: 0.86 µM

Q: With `CC(C)c1ccc2c(CCCCS(=O)(=O)Nc3ccccc3)cc(C(=O)O)c-2cc1` as the compound, how does the IC50 (Thromboxane A2 receptor [1]) read?
A: 8.7 µM

Q: `CC(C)c1ccc2c(CNC(=O)CNS(=O)(=O)c3ccccc3)cc(C(=O)O)c-2cc1` was tested. Which IC50 (Thromboxane A2 receptor [1]) did it give?
A: > 100 µM

Q: And the IC50 (Oryctolagus cuniculus)?
A: > 1000 µM

Q: `CC(C)c1ccc2c(CNC(=O)CNS(=O)(=O)c3ccc(Cl)cc3)cc(C(=O)O)c-2cc1` was tested. Which IC50 (Thromboxane A2 receptor [1]) did it give?
A: > 100 µM

Q: With `CC(C)c1ccc2c(CNC(=O)CNC(=O)c3ccc(Cl)cc3)cc(C(=O)O)c-2cc1` as the compound, how does the IC50 (Thromboxane A2 receptor [1]) read?
A: > 100 µM

Q: `CC(C)c1ccc2c(CCCC(=O)NS(=O)(=O)c3ccc(Cl)cc3)cc(C(=O)O)c-2cc1` was tested. Which IC50 (Thromboxane A2 receptor [1]) did it give?
A: 19 µM

Q: And the IC50 (Oryctolagus cuniculus)?
A: > 1000 µM

Q: Which IC50 (Thromboxane A2 receptor [1]) does the source give for `CC(C)c1ccc2c(CCCC(=O)NS(=O)(=O)c3ccccc3)cc(S(=O)(=O)O)c-2cc1` here?
A: 65 µM

Q: `CC(C)c1ccc2c(CCCCCS(=O)(=O)Nc3ccc(Cl)cc3)cc(S(=O)(=O)O)c-2cc1` was tested. Which IC50 (Thromboxane A2 receptor [1]) did it give?
A: 0.86 µM

Q: For `CC(C)c1ccc2c(CCCS(=O)(=O)Nc3ccccc3)cc(S(=O)(=O)O)c-2cc1`, which IC50 (Thromboxane A2 receptor [1]) is on record?
A: 8.7 µM

Q: How did the IC50 (Thromboxane A2 receptor [1]) turn out when `CC(C)c1ccc2c(CCCCCS(=O)(=O)Nc3ccccc3)cc(S(=O)(=O)O)c-2cc1` was run?
A: 1.4 µM

Q: Which results are given for `CC(C)c1ccc2c(CCC/C=N/N=C(\S)Nc3ccccc3)cc(C(=O)O)c-2cc1`?
A: IC50 (Thromboxane A2 receptor [1]): 590 µM; IC50 (Oryctolagus cuniculus): > 1000 µM

Q: Which IC50 (Thromboxane A2 receptor [1]) does the source give for `CC(C)c1ccc2c(CCCS(=O)(=O)Nc3ccc(Cl)cc3)cc(C(=O)O)c-2cc1` here?
A: 9.1 µM

Q: How did the IC50 (Thromboxane A2 receptor [1]) turn out when `CC(C)c1ccc2c(CCCCCS(=O)(=O)Nc3ccc(Cl)cc3)cc(C(=O)O)c-2cc1` was run?
A: 1.7 µM

Q: `CC(C)c1ccc2c(CCCCS(=O)(=O)Nc3ccccc3)cc(S(=O)(=O)O)c-2cc1` was tested. Which IC50 (Thromboxane A2 receptor [1]) did it give?
A: 1.5 µM

Q: Which IC50 (Thromboxane A2 receptor [1]) does the source give for `CC(C)c1ccc2c(CCCS(=O)(=O)Nc3ccccc3)cc(C(=O)O)c-2cc1` here?
A: 12 µM

Q: With `O=C(O)COc1ccc(CCNS(=O)(=O)c2ccccc2)cc1` [SULOTROBAN] as the compound, how does the IC50 (Thromboxane A2 receptor [1]) read?
A: 1.5 µM
